Source: ChEMBL document CHEMBL4177563, “The medicinal chemistry of Chikungunya virus” (Bioorg Med Chem, 2017)
Converted amounts (≈) assume the structure as drawn.

Tests used:
Dengue virus [1] = experiment: Antiviral activity against Dengue virus infected in human Huh-7 cells assessed as reduction in viral load at 1 uM; assay type: functional
Dengue virus [2] = experiment: Antiviral activity against Dengue virus infected in human K562 cells assessed as reduction in viral load at 1 uM; assay type: functional
Chikungunya virus [3] = experiment: Antiviral activity against Chikungunya virus infected in human Huh-7 cells assessed as reduction in viral load at 10 uM; assay type: functional
Aedes aegypti [4] = experiment: Larvicidal activity against Aedes aegypti Paea assessed as mortality after 24 hrs; assay type: functional, organism-based
Aedes aegypti [5] = experiment: Induction of oviposition deterrent activity in Aedes aegypti assessed as effective repellency at 75 ug/ml after 24 hrs by stereomicroscopic analysis relative to control; assay type: functional
Aedes aegypti [6] = experiment: Induction of oviposition deterrent activity in Aedes aegypti assessed as effective repellency at 30 ug/ml after 24 hrs by stereomicroscopic analysis relative to control; assay type: functional
Aedes aegypti [7] = experiment: Larvicidal activity against Aedes aegypti Paea assessed as mortality at 35 ug/ml after 24 hrs relative to control; assay type: functional
Aedes aegypti [8] = experiment: Induction of oviposition deterrent activity in Aedes aegypti assessed as effective repellency at 60 ug/ml after 24 hrs by stereomicroscopic analysis relative to control; assay type: functional
Aedes aegypti [9] = experiment: Induction of oviposition deterrent activity in Aedes aegypti assessed as effective repellency at 45 ug/ml after 24 hrs by stereomicroscopic analysis relative to control; assay type: functional
Aedes aegypti [10] = experiment: Larvicidal activity against Aedes aegypti Paea assessed as mortality at 14 ug/ml after 24 hrs relative to control; assay type: functional
Aedes aegypti [11] = experiment: Induction of oviposition deterrent activity in Aedes aegypti assessed as effective repellency at 15 ug/ml after 24 hrs by stereomicroscopic analysis relative to control; assay type: functional
Aedes aegypti [12] = experiment: Larvicidal activity against Aedes aegypti Paea assessed as mortality at 28 ug/ml after 24 hrs relative to control; assay type: functional
Aedes aegypti [13] = experiment: Larvicidal activity against Aedes aegypti Paea assessed as mortality at 7 ug/ml after 24 hrs relative to control; assay type: functional
Aedes aegypti [14] = experiment: Larvicidal activity against Aedes aegypti Paea assessed as mortality at 21 ug/ml after 24 hrs relative to control; assay type: functional
Aedes aegypti [15] = experiment: Induction of oviposition deterrent activity in Aedes aegypti assessed as effective repellency at 50 ug/ml after 24 hrs by stereomicroscopic analysis relative to control; assay type: functional
Aedes aegypti [16] = experiment: Larvicidal activity against Aedes aegypti Paea assessed as mortality at 20 ug/ml after 24 hrs relative to control; assay type: functional
Aedes aegypti [17] = experiment: Induction of oviposition deterrent activity in Aedes aegypti assessed as effective repellency at 10 ug/ml after 24 hrs by stereomicroscopic analysis relative to control; assay type: functional
Aedes aegypti [18] = experiment: Larvicidal activity against Aedes aegypti Paea assessed as mortality at 10 ug/ml after 24 hrs relative to control; assay type: functional
Aedes aegypti [19] = experiment: Induction of oviposition deterrent activity in Aedes aegypti assessed as effective repellency at 20 ug/ml after 24 hrs by stereomicroscopic analysis relative to control; assay type: functional
Aedes aegypti [20] = experiment: Larvicidal activity against Aedes aegypti Paea assessed as mortality at 5 ug/ml after 24 hrs relative to control; assay type: functional
Aedes aegypti [21] = experiment: Larvicidal activity against Aedes aegypti Paea assessed as mortality at 15 ug/ml after 24 hrs relative to control; assay type: functional
Aedes aegypti [22] = experiment: Induction of oviposition deterrent activity in Aedes aegypti assessed as effective repellency at 40 ug/ml after 24 hrs by stereomicroscopic analysis relative to control; assay type: functional
Aedes aegypti [23] = experiment: Larvicidal activity against Aedes aegypti Paea assessed as mortality at 25 ug/ml after 24 hrs relative to control; assay type: functional
[24] = Cytotoxicity against African green monkey Vero cells assessed as reduction in cell viability; assay type: cell-based; conditions: chlorocebus sabaeus
Chikungunya virus [25] = experiment: Antiviral activity against Chikungunya virus infected in African green monkey Vero cells; assay type: functional, organism-based
Chikungunya virus [26] = experiment: Antiviral activity against Chikungunya virus infected in BHK21 cells assessed as reduction in plague formation at 1 uM after 24 hrs relative to control; assay type: functional; conditions: BHK-21, 24 h
Chikungunya virus [27] = experiment: Antiviral activity against Chikungunya virus infected in HEK293T cells assessed as reduction in infectious virus particle production by luciferase reporter gene assay; assay type: functional, organism-based; conditions: HEK-293T
Chikungunya virus [28] = experiment: Antiviral activity against Chikungunya virus venturini isolate (Italy 2008) infected in African green monkey Vero-A cells assessed as inhibition of viral-induced cytopathic effect measured on day 7 post infection by MTS/PMS assay; assay type: functional, organism-based; conditions: 168 h
Chikungunya virus [29] = experiment: Antiviral activity against Chikungunya virus 899 infected in African green monkey Vero-A cells assessed as inhibition of viral-induced cytopathic effect measured on day 7 post infection by MTS/PMS assay; assay type: functional, organism-based; conditions: Chikungunya virus, 899, 168 h
Chikungunya virus [30] = experiment: Antiviral activity against Chikungunya virus LR2006-OPY1 infected in African green monkey Vero-A cells assessed as inhibition of viral-induced cytopathic effect measured on day 7 post infection by MTS/PMS assay; assay type: functional, organism-based; conditions: LR2006-OPY1, 168 h
Chikungunya virus [31] = experiment: Antiviral activity against Chikungunya virus S-27 assessed as viral titer interferon loading; assay type: functional
[32] = Selectivity index, ratio of CC50 for African green monkey Vero cells to IC50 for Chikungunya virus DRDE-06; assay type: toxicity; conditions: read-out: Ratio CC50/IC50
[33] = Cytotoxicity against African green monkey Vero cells by neutral red dye uptake assay; assay type: cell-based; conditions: chlorocebus sabaeus
Chikungunya virus [34] = experiment: Antiviral activity against Chikungunya virus isolate DRDE-06 infected in African green monkey Vero cells by neutral red dye uptake assay; assay type: functional, organism-based; conditions: isolate DRDE-06, Vero
Chikungunya virus [35] = experiment: Antiviral activity against Chikungunya virus SGP011 by qRT-PCR analysis; assay type: functional, organism-based
Chikungunya virus [36] = experiment: Antiviral activity against Chikungunya virus 899 by qRT-PCR analysis; assay type: functional, organism-based
Chikungunya virus [37] = experiment: Antiviral activity against Chikungunya virus 899 infected in African green monkey BGM cells assessed as reduction in viral infectious progeny after 48 hrs by titration assay; assay type: functional, organism-based; conditions: Chikungunya virus, 899, BGM
Chikungunya virus [38] = experiment: Antiviral activity against Chikungunya virus SGP011 infected in African green monkey BGM cells after 24 hrs by luciferase reporter gene assay; assay type: functional, organism-based
Chikungunya virus [39] = experiment: Antiviral activity against Chikungunya virus SGP011 infected in African green monkey BGM cells assessed as reduction in viral infectious progeny after 48 hrs by titration assay; assay type: functional, organism-based
Chikungunya virus [40] = experiment: Antiviral activity against Chikungunya virus CNR20235 infected in buffalo green monkey BGM cells after 24 hrs by luciferase reporter gene assay; assay type: functional, organism-based
Chikungunya virus [41] = experiment: Antiviral activity against Chikungunya virus 899 assessed as inhibition of virus-induced cytopathogenic effect measured on day 5 post infection by MTS/PMS based microscopic analysis; assay type: functional, organism-based; conditions: Chikungunya virus, 899, 120 h
Chikungunya virus [42] = experiment: Antiviral activity against Chikungunya virus LR2006 OPY1 infected in African green monkey BGM cells after 24 hrs by luciferase reporter gene assay; assay type: functional, organism-based
[43] = Selectivity index, ratio of CC50 for human MRC5 cells to IC50 for Chikungunya virus LR2006 OPY1; assay type: toxicity; conditions: read-out: Ratio CC50/IC50
[44] = Cytotoxicity against human MRC5 cells assessed as reduction in cell viability after 48 hrs by neutral red staining-based microscopic analysis
Chikungunya virus [45] = experiment: Antiviral activity against Chikungunya virus LR2006 OPY1 infected in human MRC5 cells after 30 mins by indirect immunofluorescence analysis; assay type: functional, organism-based; conditions: LR2006 OPY1, MRC5, 0.5 h
[46] = Selectivity index, ratio of CC50 for African green monkey Vero cells to IC50 for Chikungunya virus LR2006 OPY1; assay type: toxicity; conditions: read-out: Ratio CC50/IC50
Chikungunya virus [47] = experiment: Antiviral activity against Chikungunya virus LR2006 OPY1 infected in human MRC5 cells after 48 hrs by indirect immunofluorescence analysis; assay type: functional, organism-based; conditions: LR2006 OPY1, MRC5, 48 h
Chikungunya virus [48] = experiment: Antiviral activity against Chikungunya virus LR2006 OPY1 infected in human MRC5 cells after 60 mins by indirect immunofluorescence analysis; assay type: functional, organism-based; conditions: LR2006 OPY1, MRC5, 1 h
[49] = Cytotoxicity against African green monkey Vero cells assessed as reduction in cell viability after 18 hrs by neutral red staining-based microscopic analysis; conditions: chlorocebus sabaeus

O=C1c2c(O)ccc([N+](=O)[O-])c2C(=O)c2c([N+](=O)[O-])ccc(O)c21
Activity (Dengue virus [1]): >1 log10PFU/ml
Activity (Dengue virus [2]): >1 log10PFU/ml
Activity (Chikungunya virus [3]): 1 log10PFU/ml

CC(C)=CCCC(C)[C@@]1(O)CC=C(C)CC1 (stereo partly drawn)
IC50 (Aedes aegypti [4]): 15.8 µg/mL (≈ 71.2 µM)
IC90 (Aedes aegypti [4]): 30.3 µg/mL (≈ 136 µM)
Activity (Aedes aegypti [5]): 88.99%
Activity (Aedes aegypti [6]): 77.03%
Activity (Aedes aegypti [7]): 98.1%
Activity (Aedes aegypti [8]): 85.45%
Activity (Aedes aegypti [9]): 81.13%
Activity (Aedes aegypti [10]): 42.6%
Activity (Aedes aegypti [11]): 72.3%
Activity (Aedes aegypti [12]): 84.7%
Activity (Aedes aegypti [13]): 24.8%
Activity (Aedes aegypti [14]): 63.2%

CC(C)=CCCC(C)c1ccc(C)cc1 (stereo not drawn)
Activity (Aedes aegypti [15]): 89.99%
IC50 (Aedes aegypti [4]): 11.2 µg/mL (≈ 55.5 µM)
IC90 (Aedes aegypti [4]): 22 µg/mL (≈ 109 µM)
Activity (Aedes aegypti [16]): 84.2%
Activity (Aedes aegypti [17]): 70.28%
Activity (Aedes aegypti [18]): 45.3%
Activity (Aedes aegypti [6]): 80.87%
Activity (Aedes aegypti [19]): 75.62%
Activity (Aedes aegypti [20]): 24.5%
Activity (Aedes aegypti [21]): 62.7%
Activity (Aedes aegypti [22]): 86%
Activity (Aedes aegypti [23]): 97.1%

CC/C(C)=C/C(=O)O[C@@H]1[C@H](C)C[C@H]2O[C@]1(O)[C@@H](O)[C@H]1CC[C@H](O1)C(C)(C)/C=C/[C@H](C)C2=O
CC50 [24]: 60.9 µg/mL (≈ 135 µM)
EC50 (Chikungunya virus [25]): < 0.8 µg/mL

C[C@H]1O[C@@H](O[C@H]2CC[C@@]3(C)[C@H](CC[C@@H]4[C@@H]3C[C@@H](O)[C@]3(C)[C@@H](C5=CC(=O)OC5)CC[C@]43O)C2)C[C@H](O)[C@@H]1O[C@H]1C[C@H](O)[C@H](O[C@H]2C[C@H](O)[C@H](O[C@@H]3O[C@H](CO)[C@@H](O)[C@H](O)[C@H]3O)[C@@H](C)O2)[C@@H](C)O1 [DESLANOSIDE]
inhibition at 1 µM (Chikungunya virus [26]): 38.7%

O=C(O[C@@H]1Cc2c(O)cc(O)cc2O[C@@H]1c1cc(O)c(O)c(O)c1)c1cc(O)c(O)c(O)c1 [EPIGALOCATECHIN GALLATE]
EC50 (Chikungunya virus [27]): 6.54 µg/mL (≈ 14.3 µM)

NC(=O)c1nc(F)cnc1O [FAVIPIRAVIR]
EC50 (Chikungunya virus [28]): 16 µM
EC50 (Chikungunya virus [29]): 25 µM
EC50 (Chikungunya virus [30]): 25 µM

Sc1ncnc2nc[nH]c12 [MERCAPTOPURINE ANHYDROUS]
Activity (Chikungunya virus [31]): 47 - 67 U/ml

COc1c(C)c2c(c(O)c1C/C=C(\C)CCC(=O)O)C(=O)OC2 [MYCOPHENOLIC ACID]
selectivity ratio [32]: 300
CC50 [33]: 30 µM
IC50 (Chikungunya virus [34]): 0.1 µM

CC(=O)O[C@@]12C[C@@H](C)[C@@]3(O)[C@@H](C=C(CO)C[C@]4(O)C(=O)C(C)=C[C@@H]34)[C@@H]1C2(C)C [PROSTRATIN]
EC50 (Chikungunya virus [35]): 0.3 µM
EC50 (Chikungunya virus [36]): 7.6 µM
EC50 (Chikungunya virus [37]): 7.1 µM
EC50 (Chikungunya virus [38]): 0.2 µM
EC50 (Chikungunya virus [39]): 0.4 µM
EC50 (Chikungunya virus [40]): 0.5 µM
EC50 (Chikungunya virus [41]): 8 µM
EC50 (Chikungunya virus [42]): 0.2 µM

CCOC(=O)c1c(CSc2ccccc2)n(C)c2cc(Br)c(O)c(CN(C)C)c12 [UMIFENOVIR]
selectivity ratio [43]: 36
CC50 at 48 h [44]: 376 µM
IC50 (Chikungunya virus [45]): 23.1 µM
selectivity ratio [46]: 28
IC50 (Chikungunya virus [47]): 12.2 µM
IC50 (Chikungunya virus [48]): 31.7 µM
CC50 at 18 h [49]: 680 µM
